This test relates to Eμ-Myc-GAPDHlow lymphoma. The test is described as follows: Survival of OxPhos Eμ-Myc-GAPDHlow-bearing mice treated with Temsirolimus in vivo. The conditions noted are these: data not shown.

Turning to `CO[C@H]1C[C@@H]2CC[C@@H](C)[C@@](O)(O2)C(=O)C(=O)N2CCCC[C@H]2C(=O)O[C@H]([C@H](C)C[C@@H]2CC[C@@H](OC(=O)C(C)(CO)CO)[C@H](OC)C2)CC(=O)[C@H](C)/C=C(\C)[C@@H](O)[C@@H](OC)C(=O)[C@H](C)C[C@H](C)/C=C/C=C/C=C/1C` [Temsirolimus], the survival entry is given as “significantly increases”.

Source of the values: patent publication US20190292603A1, “METHOD FOR PREDICTING THE RESPONSIVENESS OF A PATIENT TO A TREATMENT WITH mTOR INHIBITORS” (INSTITUT NATIONAL DE LA SANTE ET DE LA RECHERCHE MEDICALE, priority 2018, published 2019).
